According to patent publication US4083953A, “Pharmaceutical composition containing 5:6-benzo-alpha-pyrone derivatives and method of use thereof” (Carlo Erba, S.p.A., priority 1973, dated 1978):
Where two headings read alike, the source gives them in different places.

Experiments:
Assay type in all cases: in vivo
stress-induced ulcers = assay: inhibition of stress-induced ulcers in rats (restraint in a water bath at 25° for 40 minutes); settings: 50 mg/kg i.v.
[1] = test system: passive cutaneous anaphylaxis (PCA); assay: passive cutaneous anaphylaxis (PCA) test in rats, oral; settings: Rattus norvegicus, 50 mg/kg p.o., read-out: % Inhibition In Comparison With Controls
Description: They can be therefore used in prevention and treatment of bronchial asthma, allergic rhinitis, hay fever, urticaria and dermatosis.

[2] = test system: airway resistance and pulmonary compliance; assay: airway resistance and pulmonary compliance in rats (technique of Palecek et al.); settings: dosage as low as 3 mg/kg i.v.
Description: In addition to anti-allergic activity, the compounds of this invention are effective in decreasing the airway resistance and in increasing pulmonary compliance, and can be therefore used for the treatment of respiratory insufficiency, such as, for example, acute pulmonary insufficiency, as shown by the results obtained in rats using the technique described by Palecek F., Palecekova M., and Aviado D. M. (Arch. Environ. Health, 1967, 15:332-342).

[3] = test system: bronchoconstrictive effect of 5-HT; assay: antagonism of the bronchoconstrictive effect of 5-HT in rats; settings: 3 mg/kg i.v.
[4] = test system: bronchoconstrictive effect of compound 48/80 (histamine releasing drug); assay: antagonism of the bronchoconstrictive effect of compound 48/80 in rats; settings: 3 mg/kg i.v.

| SMILES | inhibition of the stress-induced ulcers (stress-induced ulcers) [%] | inhibition in vivo at 50 mg/kg ([1]; 0.25 h, 15 min. pretreatment) [%] | inhibition in vivo at 50 mg/kg ([1]; 0.5 h, 30 min. pretreatment) [%] | inhibition in vivo at 50 mg/kg ([1]; 1 h, 60 min. pretreatment) [%] | inhibition in vivo at 50 mg/kg ([1]; 2 h, 120 min. pretreatment) [%] | effect on airway resistance [2] | effect on pulmonary compliance [2] | antagonizing the bronchoconstrictive effect of 5-HT [3] [%] | antagonizing the bronchoconstrictive effect of compound 48/80 [4] [%] |
| --- | --- | --- | --- | --- | --- | --- | --- | --- | --- |
| CC(C)Oc1ccccc1-c1cc(=O)c2cc(C(=O)[O-])ccc2o1.[Na+] [6-carboxy-2'-isopropoxy-flavone sodium salt] | 45 |  |  |  |  |  |  |  |  |
| CC(C)Oc1ccccc1-c1cc(=O)c2cc(C(=O)O)ccc2o1 [6-carboxy-2'-isopropoxy-flavone] |  | 82.9 | 39.5 | 27.6 | 24.4 | lower the airway resistance | increase pulmonary compliance | 50 | 50 |
| O=C(O)c1ccc2oc(-c3cnccn3)cc(=O)c2c1 [6-carboxy-2-(2'-pyrazinyl)-chromone] |  | 87 | 47.3 | 31.9 | 26.3 |  |  |  |  |
| O=C(O)c1ccc2oc(C=Cc3ccccc3)cc(=O)c2c1 [6-carboxy-2-(β-phenyl-vinyl)-chromone] |  | 69.9 | 45.8 | 19.6 | 16.6 |  |  |  |  |
| O=C(O)c1ccc2oc(-c3cccc(Cl)c3)cc(=O)c2c1 [6-carboxy-3'-chloro-flavone] |  | 31 | 22.3 | 5.9 | 2.1 |  |  |  |  |
| O=C(O)c1ccc2oc(-c3ccc(O)cc3)cc(=O)c2c1 [6-carboxy-4'-hydroxy-flavone] |  | 9.2 | 4 | 3.7 | 3.9 |  |  |  |  |
| O=C(O)c1ccc2oc(-c3ccccc3)cc(=O)c2c1 [6-carboxy-flavone] |  | 32.1 | 23.5 | 6.8 | 3.4 |  |  |  |  |
| O=C(O)c1ccc2oc3ccc(OCCO)cc3c(=O)c2c1 [AH 7725, 2-carboxy-7-hydroxyethoxy-xanthone] |  | 42.6 | 14.4 | 13.3 | 3.8 |  |  |  |  |
| O=C(O)c1cc(=O)c2c(OCC(O)COc3cccc4oc(C(=O)O)cc(=O)c34)cccc2o1 [DSCG, disodium cromoglycate] |  | 6 | 5.5 | 3.2 | 2.5 |  |  |  |  |
